Experimental data as given in publication PMC6373673, “Purified PEGylated human glucagon-like peptide-2 reduces the severity of irradiation-induced acute radiation enteritis in rats” (Journal of Radiation Research, 2018).

Legend:
Format in all cases: in vivo, Sprague Dawley (SD) rats
[1] = system: irradiation-induced acute radiation enteritis in rats; experiment: Clinical, gross, histological and morphometric changes of the small intestine in irradiation-induced acute radiation enteritis; design: key to Shortening of villi (histologic) / Architectural disarray (histologic) / Diarrhea / Abdominal distention / Intestinal dilatation (gross) / Mucosal ulceration (gross) / Edema (gross): (–) = absent; (+) = present; settings: SD rats, 8 Gy abdominal X-ray; for Crypt height / Height of villi: jejunum 48 h after, five microscopic fields per animal, ×100, mean ± SD; for Abdominal distention / Architectural disarray (histologic) / Diarrhea / Edema (gross) / Intestinal dilatation (gross) / Mucosal ulceration (gross) / Shortening of villi (histologic): killed 48 h after
Text: (§1) Sixty adult male Sprague Dawley (SD) rats weighing 220–250 g were included in our study. Rats were subjected to 1 week of preliminary conditioning, during which time they received standard pellet rat chow and water ad libitum. They were housed in a temperature-and humidity-controlled environment, two animals per cage, with a 12-h light/12-h dark cycle. The Principles of Laboratory Animal Care (NIH Publication 85e23, revised 1996) were followed. Animal study protocols were approved by the Ethics Committee of the Fourth Military Medical University. The experiment was carried out at the Department of Pharmacy, Tangdu Hospital, Fourth Military Medical University.
(§2) X-ray irradiation was performed using a linear accelerator (Siemens primask) adjusted to provide X-ray irradiation, and carried out at the Department of Radiology and Oncology at the Tangdu Hospital. All of the animals were anesthetized with an intramuscular injection of pentobarbital sodium (100 mg/kg) and subjected to a single dose of 8 Gy abdominal X-radiation. The dose was delivered at a rate of 400 monitor units/min (1100 rad, 116.5 cGy/min, 100 cm source–skin distance) using a conventional radiation source, while the other parts of the body were carefully shielded.
(§3) Rats were randomized into six groups (Groups A–F). […] The remaining rats were subjected to a single dose of 8 Gy of abdominopelvic X-radiation and randomized further into five groups (Groups B–F). […] Briefly, rats were anesthetized with 100 mg/kg pentobarbital sodium, positioned supine, and subjected to a single fraction of 8 Gy delivered at a specific depth through abdominopelvic fields using X-rays at the rate of 0.74 Gy/min, while the other parts of the body were carefully shielded. Radiated rats were allowed to recover from the anesthetic and GLP-2 or Mono-PEG-hGLP-2 was administered by intraperitoneal injection. • Group A: non-X-ray irradiated (control). • Group B: X-ray irradiated. • Group C: pretreated with 3 μg of Mono-PEG-hGLP-2 in 0.3 ml of saline 5 min before X-ray irradiation. • Group D: pretreated with 10 μg of Mono-PEG-hGLP-2 in 0.3 ml of saline 5 min before X-ray irradiation. • Group E: pretreated with 30 μg of Mono-PEG-hGLP-2 in 0.3 ml of saline 5 min before X-ray irradiation. • Group F: pretreated with 30 μg of GLP-2 in 0.3 ml of saline 5 min before X-ray irradiation.
Animals were killed 48 h after X-ray irradiation, and laparotomies were performed. Immediately after the laparotomy, the small intestine (jejunum) was examined and removed. Two-centimeter segments of the jejunum and segments of the intestine showing edema and change in color (purple) were resected. Luminal contents were washed with 0.9% NaCl by injecting saline through the lumen of the small bowel segments. Tissue samples were pinned out on a paraffin block and floated upside down in 10% buffered formalin overnight, dehydrated, and embedded in paraffin. Sections of 4 μm were cut with a Leica sliding microtome (SM 2000R, Nussbach, Germany) and slides, containing a minimum of 10 sections, were stained with hematoxylin and erosin stains. Some representative intestine sections were processed for ultrastructural studies. Sections were evaluated quantitatively and qualitatively in a blinded fashion.
For histological assessment, villous height (from the base to the tip of the villi), crypt height (from the base to the tip of each crypt), and the number of villi per square millimeter was determined based on individual intestinal segments at five separate microscopic fields for each animal. They were recorded as the mean values using ocular micrometer-adapted light microscopy at a magnification of ×100.

[2] = system: oxidative stress markers (MDA, SOD, GSH, GSH-Px) in the small intestine; experiment: Intestinal MDA, SOD, GSH and GSH-Px (commercial assay kits) after X-ray irradiation; settings: SD rats, 8 Gy abdominal X-ray, small intestine 48 h after, mean ± S.D., n = 10
Text: as §1, §2, §3
(§4) Malondialdehyde (MDA) levels, glutathione (GSH) content, and the activities of super oxide-dismutase (SOD) and glutathione peroxidase (GPx) were determined in the small intestine using commercial assay kits (Biyuntian Co., China) according to the manufacturer’s protocols. The protein content ratio was determined by Pierce™ BCA Protein Assay Kit (Thermo Fisher Scientific Inc., Rockford, IL, USA). All of the values were normalized to total intestinal protein. Small intestine tissue (20 mg) was homogenized in lysis buffer (150 mM NaCl, 0.1% SDS, 0.1% NP-40, 20 mM Tris-HCl pH 7.5) and protease inhibitor cocktail using a Tissue Lyser II homogenizer (Qiagen; Hilden, Germany). Total protein concentrations of tissue homogenates were detected by a Pierce™ BCA Protein Assay Kit (Thermo Scientific; Rockford, IL, USA). The levels of tumor necrosis factor-alpha (TNF-α) (Invitrogen; Carlsbad, CA, USA) and interleukin-2 (IL-2) (Bioo Scientific; Austin, TX, USA) in the tissue samples were determined using commercially available sandwich ELISA kits, according to the protocol recommended by the manufacturer. Results were recorded as the ratio of detected protein (TNF-α, IL-2) (pg/ml) to the amount of total protein (mg/ml).

TNF-α = experiment: Intestinal TNF-α by sandwich ELISA after X-ray irradiation; settings: SD rats, 8 Gy abdominal X-ray, small intestine homogenate 48 h after, mean ± S.D., n = 10
Text: as §1, §2
Rats were randomized into six groups (Groups A–F). […] The remaining rats were subjected to a single dose of 8 Gy of abdominopelvic X-radiation and randomized further into five groups (Groups B–F). […] Briefly, rats were anesthetized with 100 mg/kg pentobarbital sodium, positioned supine, and subjected to a single fraction of 8 Gy delivered at a specific depth through abdominopelvic fields using X-rays at the rate of 0.74 Gy/min, while the other parts of the body were carefully shielded. […]
as §4, with “All of the values were normalized to total intestinal protein. Small intestine tissue (20 mg) was homogenized in lysis buffer (150 mM NaCl, 0.1% SDS, 0.1% NP-40, 20 mM Tris-HCl pH 7.5) and protease inhibitor cocktail using a Tissue Lyser II homogenizer (Qiagen; Hilden, Germany).” left out

[3] = 3 μg i.p. 5 min before irradiation
[4] = 3 μg i.p. in 0.3 ml saline 5 min before irradiation
[5] = 10 μg i.p. 5 min before irradiation
[6] = 10 μg i.p. in 0.3 ml saline 5 min before irradiation
[7] = 30 μg i.p. 5 min before irradiation
[8] = 30 μg i.p. in 0.3 ml saline 5 min before irradiation

## Mono-PEG-hGLP-2: human GLP-2 peptide conjugated to one 5 kDa mPEG chain by reaction with mPEG5k-SPA
[1]; [3]
  Crypt height: 121.6 ± 6.3 μm
  Height of villi: 268.1 ± 11.6 μm
[1]; [4]
  Abdominal distention: +
  Architectural disarray (histologic): +
  Diarrhea: –
  Edema (gross): +
  Intestinal dilatation (gross): +
  Mucosal ulceration (gross): +
  Shortening of villi (histologic): +
[1]; [5]
  Height of villi: 437.1 ± 19.4 μm
[1]; [6]
  Abdominal distention: –
  Architectural disarray (histologic): –
  Diarrhea: –
  Edema (gross): +
  Intestinal dilatation (gross): –
  Mucosal ulceration (gross): –
  Shortening of villi (histologic): +
[1]; [7]
  Crypt height: 188.5 ± 8.3 μm
  Height of villi: 507.9 ± 21.1 μm
[1]; [8]
  Abdominal distention: –
  Architectural disarray (histologic): –
  Diarrhea: –
  Edema (gross): –
  Intestinal dilatation (gross): –
  Mucosal ulceration (gross): –
  Shortening of villi (histologic): –
[1]; i.p. pretreatment 5 min before irradiation, result in words
  Protection against radiation-induced intestinal injury (villi integrity, histology): markedly protected the integrity of the villi and preserved the villous height
[2]; [3]
  Intestinal GSH-Px activity: 331.2 ± 22.1 U/mg prot
  Intestinal SOD activity: 40.47 ± 5.41 U/mg prot
  Intestinal content of GSH: 20.22 ± 4.87 mg/g prot
  Intestinal content of MDA: 5.27 ± 0.44 nmol/mg prot
[2]; [5]
  Intestinal GSH-Px activity: 367.5 ± 42.3 U/mg prot
  Intestinal SOD activity: 47.45 ± 8.24 U/mg prot
  Intestinal content of GSH: 24.70 ± 10.22 mg/g prot
  Intestinal content of MDA: 4.48 ± 0.37 nmol/mg prot
[2]; [7]
  Intestinal GSH-Px activity: 412.7 ± 65.7 U/mg prot
  Intestinal SOD activity: 56.11 ± 6.01 U/mg prot
  Intestinal content of GSH: 24.01 ± 4.17 mg/g prot
  Intestinal content of MDA: 4.01 ± 0.22 nmol/mg prot
TNF-α; [3]
  Intestinal content of TNF-α: 7.68 ± 0.77 pg/mg prot
TNF-α; [5]
  Intestinal content of TNF-α: 6.12 ± 1.01 pg/mg prot
TNF-α; [7]
  Intestinal content of TNF-α: 4.78 ± 0.67 pg/mg prot
